Test results from patent US20230131899A1, “INHIBITORS OF MICROBIALLY INDUCED AMYLOID” (Axial Therapeutics, Inc., priority 2020, published 2023).
Read-outs that look alike come from different tables or passages of the source.

Biological target: T1, E. coli CsgA (Escherichia coli, UniProt P28307)
T1 construct: made in house; host or cells: E. coli NEB 3016 slyD::kan, pET11d
Test: In vitro ThioflavinT assay of CsgA aggregation (CsgA ThT Assay)
Assay type: biochemical
Conditions: for remaining activity at 25 µM: compound 25 μM; for remaining activity at 100 µM: compound 100 μM
Outline: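 Purified C-terminal His-tagged CsgA, monomerised by desalting and 30-kDa filtration, at 2-20 μM with 20-40 μM ThT in 50 mM potassium phosphate pH 7.3, 1% DMSO, compounds 3.125-200 uM; room temperature, fluorescence (ex 438/em 495 nm) read every 15 min. Background-subtracted signal expressed as percent inhibition versus vehicle at 6-6.5 or 8-9 h, or as percent control AUC.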

[1] = read-out: CsgA ThT Assay (10 μM CsgA) % Control AUC at 1005 minutes, 25 μM (activity range), CsgA 10 μM, black plates, 1005 minutes, class symbol
[2] = read-out: CsgA ThT Assay (10 μM CsgA) % Control AUC at 1005 minutes, 25 μM, mean AUC as % of DMSO control, CsgA 10 μM, black plates, 1005 minutes
[3] = read-out: CsgA ThT Assay (10 μM CsgA) % Control AUC at 1005 minutes, 100 μM (activity range), CsgA 10 μM, black plates, 1005 minutes, class symbol
[4] = read-out: CsgA ThT Assay (10 μM CsgA) % Control AUC at 1005 minutes, 100 μM, mean AUC as % of DMSO control, CsgA 10 μM, black plates, 1005 minutes
[5] = read-out: CsgA ThT Assay (2 μM CsgA) % Control Bmax 25 μM, activity range, class symbol, CsgA 2 μM, white plates
[6] = read-out: CsgA ThT Assay (2 μM CsgA) % Control Bmax 25 μM, mean Bmax as percentage of DMSO control, CsgA 2 μM, white plates
[7] = read-out: CsgA ThT Assay (2 μM CsgA) % Control Bmax 100 μM, activity range, class symbol, CsgA 2 μM, white plates
[8] = read-out: CsgA ThT Assay (2 μM CsgA) % Control Bmax 100 μM, mean Bmax as percentage of DMSO control, CsgA 2 μM, white plates

T1 sequence (P28307 23-151): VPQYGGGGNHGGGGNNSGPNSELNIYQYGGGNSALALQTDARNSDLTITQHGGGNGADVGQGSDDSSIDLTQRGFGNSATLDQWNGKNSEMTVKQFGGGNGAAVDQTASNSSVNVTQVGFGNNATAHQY

SMILES: O=C(O)C1COc2c(-c3cccc(C(F)(F)F)c3)c(Cc3cccc4ccccc34)cc(=O)n21 (centres unmarked) [Compound 064, 7-(naphthalen-1-ylmethyl)-5-oxo-8-(3-(trifluoromethyl)phenyl)-2,3-dihydro-5H-oxazolo[3,2-a]pyridine-3-carboxylic acid]
- remaining activity at 25 µM [1]: 31 to 60%
- remaining activity at 25 µM [2]: 45%
- remaining activity at 100 µM [3]: 11 to 31%
- remaining activity at 100 µM [4]: 16%

SMILES: COc1ccc(CN2CC(C(=O)O)n3c2c(-c2cccc(C(F)(F)F)c2)c(Cc2cccc4ccccc24)c(Cl)c3=O)cc1 (centres unmarked) [Compound 192, 6-chloro-1-(4-methoxybenzyl)-7-(naphthalen-1-ylmethyl)-5-oxo-8-(3-(trifluoromethyl)phenyl)-1,2,3,5-tetrahydroimidazo[1,2-a]pyridine-3-carboxylic acid]
- remaining activity at 25 µM [5]: > 60%
- remaining activity at 25 µM [6]: 87%
- remaining activity at 100 µM [7]: > 60%
- remaining activity at 100 µM [8]: 95%

SMILES: Nc1c(Cc2ccc(N)c3ccccc23)c(-c2cccc(C(F)(F)F)c2)c2n(c1=O)C(C(=O)O)CNS2(=O)=O (centres unmarked) [Compound 041]
- remaining activity at 25 µM [1]: > 60%
- remaining activity at 25 µM [2]: 75%
- remaining activity at 100 µM [3]: 11 to 31%
- remaining activity at 100 µM [4]: 27%

SMILES: CC(C)(C)c1ccc(Cc2c(-c3cccc(C(F)(F)F)c3)c3n(c(=O)c2Cl)C(C(=O)O)CN3Cc2ccccc2)cc1 (centres unmarked) [Compound 216, 1-benzyl-7-(4-(tert-butyl)benzyl)-6-chloro-5-oxo-8-(3-(trifluoromethyl)phenyl)-1,2,3,5-tetrahydroimidazo[1,2-a]pyridine-3-carboxylic acid]
- remaining activity at 25 µM [5]: > 60%
- remaining activity at 25 µM [6]: 95%
- remaining activity at 100 µM [7]: 31 to 60%
- remaining activity at 100 µM [8]: 55%

SMILES: O=C(O)C1CN(Cc2ccccc2CO)c2c(-c3cccc(C(F)(F)F)c3)c(Cc3cccc4ccccc34)c(Cl)c(=O)n21 (centres unmarked) [Compound 181, 6-chloro-1-(2-(hydroxymethyl)benzyl)-7-(naphthalen-1-ylmethyl)-5-oxo-8-(3-(trifluoromethyl)phenyl)-1,2,3,5-tetrahydroimidazo[1,2-a]pyridine-3-carboxylic acid]
- remaining activity at 25 µM [5]: 31 to 60%
- remaining activity at 25 µM [6]: 57%
- remaining activity at 100 µM [7]: 31 to 60%
- remaining activity at 100 µM [8]: 40%

SMILES: O=C(O)C1n2c(c(-c3cccc(C(F)(F)F)c3)c(Cc3cccc4ccccc34)nc2=O)SC12CCCC2 (centres unmarked) [Compound 053, 7′-(naphthalen-1-ylmethyl)-5′-oxo-8′-(3-(trifluoromethyl)phenyl)-3′H,5′H-spiro[cyclopentane-1,2′-thiazolo[3,2-c]pyrimidine]-3′-carboxylic acid]
- remaining activity at 25 µM [1]: 31 to 60%
- remaining activity at 25 µM [2]: 39%
- remaining activity at 100 µM [3]: 11 to 31%
- remaining activity at 100 µM [4]: 12%

SMILES: CN(C)C(=O)c1c(Cc2cccc3ccccc23)c(-c2cccc(C(F)(F)F)c2)c2n(c1=O)C(C(=O)O)CN(C)S2(=O)=O (centres unmarked) [Compound 173, 7-(dimethylcarbamoyl)-2-methyl-8-(naphthalen-1-ylmethyl)-6-oxo-9-(3-(trifluoromethyl)phenyl)-3,4-dihydro-2H,6H-pyrido[1,2-e] [1,2,5] thiadiazine-4-carboxylic acid 1,1-dioxide]
- remaining activity at 25 µM [5]: > 60%
- remaining activity at 25 µM [6]: 73%
- remaining activity at 100 µM [7]: 31 to 60%
- remaining activity at 100 µM [8]: 40%

SMILES: O=C(O)C1CN(CCCCCCN2CC(C(=O)O)n3c2c(-c2cccc(C(F)(F)F)c2)c(Cc2cccc4ccccc24)c(Cl)c3=O)c2c(-c3cccc(C(F)(F)F)c3)c(Cc3cccc4ccccc34)c(Cl)c(=O)n21 (centres unmarked) [Compound 193, 1,1′-(hexane-1,6-diyl)bis(6-chloro-7-(naphthalen-1-ylmethyl)-5-oxo-8-(3-(trifluoromethyl)phenyl)-1,2,3,5-tetrahydroimidazo[1,2-a]pyridine-3-carboxylic acid)]
- remaining activity at 25 µM [5]: 31 to 60%
- remaining activity at 25 µM [6]: 53%
- remaining activity at 100 µM [7]: < 10%
- remaining activity at 100 µM [8]: 10%
